According to US20240199728A1, “METHODS OF TREATING OBESITY, DIABETES, AND LIVER DYSFUNCTION” (REGENERON PHARMACEUTICALS, INC., priority 2022, published 2024):

Columns and labels:
Assay type in all cases: in vivo
[1] = test system: diet-induced obesity (DIO) mouse model; assay: Plasma ALT, AST, NEFA, triglycerides, cholesterol (Advia Chemistry Analyzer), DIO mice; details: end of study, first value of group (mean)
Excerpt: (§1) DIO mice that have been fed a high fat diet for at least 20 weeks were distributed into 4 different groups balanced by body fat content as determined by MRI and blood glucose. On day 0, all mice were implanted with osmotic pumps (Alzet, Cat #2004), in which the stainless steel flow moderators were replaced with PEEK tubing (DURECT Corporation, Cat #0002496) to allow for MRI measurements during the experiment. Pumps for groups 1 and 2 contained PBS, while pumps used for groups 3 and 4 contained Semaglutide (0.833 mg/mL for […] infusion). The next day (day 1), mice were injected with their respective antibodies: group 1 and group 3: Isotype control (at 20 mg/kg); group 2 and group 4: anti-GDF8 antibody (REGN1033) & anti-Activin A antibody (REGN2477) (at 10 mg/kg each). The antibody injections were repeated on days 4 and 7 and once weekly after that.
Body composition using MRI and fed blood glucose using a glucometer from tail bleeds were measured weekly in the morning. Mice were also bled for insulin measurements on a weekly basis. An oral glucose tolerance test (OGTT) was performed on day 23. For the OGTT, mice were fasted for 4 hours, and baseline glucose was measured. Subsequently, 2 g/kg glucose was administered to the mice by oral gavage, and glucose was measured again after 30, 60, 90, and 120 minutes. On day 26, 6 hour fasted blood glucose was measured, and mice were bled for insulin assessment as described above. At the end of the study (day 28/29), mice were sacrificed, and tissue (skeletal muscle, adipose, pancreas, heart, spleen, liver) was collected for weight and further analysis. Mouse plasma was used to measure circulating levels of ALT, AST, non-esterified fatty acids (NEFAs), triglycerides (trigs), and cholesterol (chol) on the Advia Chemistry Analyzer from Siemens. One lobe of the liver was fresh frozen to allow for triglyceride extraction and quantification using standard protocols. […] H&E, as well as smooth muscle actin (SMA), staining was performed, and slides were subjected to quantification using Halo software. […]

[2] = test system: diet-induced obesity (DIO) mouse model; assay: Oral glucose tolerance test (OGTT) and fasted blood glucose, DIO mice
Excerpt: as §1
Body composition using MRI and fed blood glucose using a glucometer from tail bleeds were measured weekly in the morning. Mice were also bled for insulin measurements on a weekly basis. An oral glucose tolerance test (OGTT) was performed on day 23. For the OGTT, mice were fasted for 4 hours, and baseline glucose was measured. […] On day 26, 6 hour fasted blood glucose was measured, and mice were bled for insulin assessment as described above. At the end of the study (day 28/29), mice were sacrificed, and tissue (skeletal muscle, adipose, pancreas, heart, spleen, liver) was collected for weight and further analysis. Mouse plasma was used to measure circulating levels of ALT, AST, non-esterified fatty acids (NEFAs), triglycerides (trigs), and cholesterol (chol) on the Advia Chemistry Analyzer from Siemens. One lobe of the liver was fresh frozen to allow for triglyceride extraction and quantification using standard protocols. Another lobe of the liver and the pancreas were fixed in 10% formalin, embedded in paraffin, and sectioned for liver histology. H&E, as well as smooth muscle actin (SMA), staining was performed, and slides were subjected to quantification using Halo software. Paraffin sections of the pancreas were stained for insulin and glucagon to determine beta cell and alpha cell mass, respectively, using Halo software.

[3] = test system: diet-induced obesity (DIO) mouse model; assay: Final tissue/organ weights at end of study (day 28/29), DIO mice; details: control group = 0.00 (FIG. 2B: % change vs. control), in %
Excerpt: DIO mice that have been fed a high fat diet for at least 20 weeks were distributed into 4 different groups balanced by body fat content as determined by MRI and blood glucose. On day 0, all mice were implanted with osmotic pumps (Alzet, Cat #2004), in which the stainless steel flow moderators were replaced with PEEK tubing (DURECT Corporation, Cat #0002496) to allow for MRI measurements during the experiment. Pumps for groups 1 and 2 contained PBS, while pumps used for groups 3 and 4 contained Semaglutide (0.833 mg/mL for 7 ug/day infusion). […]
Body composition using MRI and fed blood glucose using a glucometer from tail bleeds were measured weekly in the morning. […] For the OGTT, mice were fasted for 4 hours, and baseline glucose was measured. Subsequently, 2 g/kg glucose was administered to the mice by oral gavage, and glucose was measured again after 30, 60, 90, and 120 minutes. On day 26, 6 hour fasted blood glucose was measured, and mice were bled for insulin assessment as described above. […] One lobe of the liver was fresh frozen to allow for triglyceride extraction and quantification using standard protocols. […] H&E, as well as smooth muscle actin (SMA), staining was performed, and slides were subjected to quantification using Halo software. […]

[4] = test system: diet-induced obesity (DIO) mouse model; assay: Liver triglyceride extraction and liver histology (H&E, SMA staining), DIO mice; details: end of study
Excerpt: as §1
(§2) Body composition using MRI and fed blood glucose using a glucometer from tail bleeds were measured weekly in the morning. Mice were also bled for insulin measurements on a weekly basis. An oral glucose tolerance test (OGTT) was performed on day 23. For the OGTT, mice were fasted for 4 hours, and baseline glucose was measured. Subsequently, 2 g/kg glucose was administered to the mice by oral gavage, and glucose was measured again after 30, 60, 90, and 120 minutes. On day 26, 6 hour fasted blood glucose was measured, and mice were bled for insulin assessment as described above. At the end of the study (day 28/29), mice were sacrificed, and tissue (skeletal muscle, adipose, pancreas, heart, spleen, liver) was collected for weight and further analysis. Mouse plasma was used to measure circulating levels of ALT, AST, non-esterified fatty acids (NEFAs), triglycerides (trigs), and cholesterol (chol) on the Advia Chemistry Analyzer from Siemens. One lobe of the liver was fresh frozen to allow for triglyceride extraction and quantification using standard protocols. Another lobe of the liver and the pancreas were fixed in 10% formalin, embedded in paraffin, and sectioned for liver histology. H&E, as well as smooth muscle actin (SMA), staining was performed, and slides were subjected to quantification using Halo software. Paraffin sections of the pancreas were stained for insulin and glucagon to determine beta cell and alpha cell mass, respectively, using Halo software.

[5] = test system: diet-induced obesity (DIO) mouse model; assay: Body weight and body composition (MRI) over time in diet-induced obesity (DIO) mouse model; parameters: Body weight changes over time, Mean / Lean mass changes over time, Mean / Fat mass changes over time, Mean: unit not given here; details: DIO mice; for Fat mass changes over time, Mean / Lean mass changes over time, Mean: MRI
Excerpt: as §1, §2

[6] = test system: obese adult male cyno non-human primate (NHP) with NASH; assay: Obese NHP study of body weight, liver and metabolic effects of adding myostatin/activin A blockade onto GLP-1R agonism; details: week 12
Method: An obese NHP study of the body weight, liver and metabolic effects of adding on myostatin/activin A blockade onto GLP-1R agonism was carried out. FIG. 10 sets forth the study and timeline for obese adult male cyno non-human primate (NHP) with NASH, stratified based on body weight and % body fat, n=10 per arm.
The treatment groups were: • vehicle; • Semaglutide; • Anti-Myostatin+anti-Activin A; • Semaglutide+anti-Myostatin; and • Semaglutide+anti-Myostatin+anti-Activin A. REGN1033 is an anti-Myostatin antibody, and REGN2477 is an anti-Activin A antibody. The GLP-1 agonist employed was Semaglutide. Semaglutide was administered at 10 μg/kg. Anti-Myostatin antibody was administered at 50 mg/kg. Anti-Activin A antibody was administered at 50 mg/kg.
Postmenopausal women received 10 mg/kg (anti-myostatin+anti-activin A) IV, Q2W. Thigh muscle volume was measured via MRI, and android fat mass was measured via iDXA, both over 30 weeks. Obese non-human primates received 50 mg/kg anti-myostatin+50 mg/kg anti-activin A (QW). Total lean mass was measured via iDXA, and total fat mass was measured via iDXA, both over 28 weeks. […]

[7] = test system: diet-induced obesity (DIO) mouse model; assay: Fed blood glucose, insulin and glucagon, DIO mice
Excerpt: as §1, §2

Semaglutide was tested, and the “Plasma measurements - Liver panel, AST” value [1] was 103.625, the “Plasma measurements - Liver panel, Chol” value [1] was 193.75 and the “Plasma measurements - Liver panel, NEFA” value [1] was 0.5837. For the same substance, the “Area under the curve of OGTT at day 23, Mean” value ([2]; 2 g/kg glucose oral gavage, day 23) was 27698, the “4 hrs fasted glucose levels at day 23, Mean” value ([2]; 4 hrs fasted, day 23, in mg/dL (unit assumed)) was 192.1 and the “6 hrs fasted glucose levels at day 26, Mean” value ([2]; 6 hrs fasted, day 26, in mg/dL (unit assumed)) was 172.6. The “oGTT measurement on day 23 (glucose), Mean” value (“oGTT measurement” below) ([2]; Time 0 min) was 192.125, the “oGTT measurement” value ([2]; Time 15 min) was 433.5 and the “oGTT measurement” value ([2]; Time 30 min) was 310.75. The “oGTT measurement” value ([2]; Time 60 min) was 230.75, the “Final organ weights, Gonadal Fat, Mean” value [3] was −10.56 and the “Final organ weights, Subq Fat, Mean” value [3] was −22.58. For the same substance, the “Liver fat area, Mean” value ([4]; H&E liver histology) was 28.34, the “SMA positive area (% of fat-free area), Mean” value ([4]; liver SMA staining) was 6.942 % of fat-free area and the “SMA positive area (normalized to nuclei amount), Mean” value ([4]; liver SMA staining) was 14.32. The “Liver triglycerides, Mean” value ([4]; liver tissue) was 153.6, the “Body weight changes over time, Mean” value ([5]; Day 5) was −11.33 and the “Body weight changes over time, Mean” value ([5]; Day 6) was −12.46. For the same substance, the “Body weight changes over time, Mean” value ([5]; Day 9) was −15.25, the “Body weight changes over time, Mean” value ([5]; Day 12) was −16.20 and the “Body weight changes over time, Mean” value ([5]; Day 13) was −15.72. The “Body weight changes over time, Mean” value ([5]; Day 14) was −17.49, the “Body weight changes over time, Mean” value ([5]; Day 19) was −15.74 and the “Body weight changes over time, Mean” value ([5]; Day 23) was −13.16. For the same substance, the “Body weight changes over time, Mean” value ([5]; Day 26) was −12.53, the “Body weight changes over time, Mean” value ([5]; Day −6 (before treatment)) was 0 and the “Fat mass changes over time, Mean” value ([5]; Day 5) was −23.75. The “Lean mass changes over time, Mean” value ([5]; Day 5) was −3.50, the “Fat mass changes over time, Mean” value ([5]; Day 12) was −33.78 and the “Lean mass changes over time, Mean” value ([5]; Day 12) was −4.09. The “Fat mass changes over time, Mean” value ([5]; Day 19) was −34.24, the “Lean mass changes over time, Mean” value ([5]; Day 19) was −2.43 and the “Lean mass changes over time, Mean” value ([5]; Day 25) was −1.93. For the same substance, the “Fat mass changes over time, Mean” value ([5]; Day 26) was −29.52, the “Fat mass changes over time, Mean” value ([5]; Day −6 (before treatment)) was 0 and the “Lean mass changes over time, Mean” value ([5]; Day −6 (before treatment)) was 0. For the same substance, the “decrease in body weight as compared with the control group” value ([5]; vs control group) was “approximately 14%”, the “decrease in lean mass as compared with the control group” value ([5]; vs control group) was 3-4% and the “loss in fat mass compared to the control group” value ([5]; vs control group (Group 1)) was “approximately 18%”. For the same substance, the “lean mass (in words)” value [6] was “lean mass loss”, the “fed insulin over time, Mean” value ([7]; Day 6) was 6.2175 and the “fed insulin over time, Mean” value ([7]; Day 13) was 2.296. The “Fed glucose over time, Mean” value ([7]; Day 20, in mg/dL (unit assumed)) was 259.5, the “fed insulin over time, Mean” value ([7]; Day −5 (before treatment)) was 16.285 and the “Fed glucagon levels at day 20, Mean” value ([7]; day 20) was 4.106.
